The target in one series is Adenosine receptor A2a (Homo sapiens, UniProt P29274). Put plainly: Displacement of [3H]ZM-241,385 from human adenosine A2a receptors transfected in HEK 293 cells. In kind it is cell-based, HEK293.
Series [1] addresses T1, Adenosine receptor A2b (Homo sapiens) (UniProt P29275).
T1 sequence (whole entry): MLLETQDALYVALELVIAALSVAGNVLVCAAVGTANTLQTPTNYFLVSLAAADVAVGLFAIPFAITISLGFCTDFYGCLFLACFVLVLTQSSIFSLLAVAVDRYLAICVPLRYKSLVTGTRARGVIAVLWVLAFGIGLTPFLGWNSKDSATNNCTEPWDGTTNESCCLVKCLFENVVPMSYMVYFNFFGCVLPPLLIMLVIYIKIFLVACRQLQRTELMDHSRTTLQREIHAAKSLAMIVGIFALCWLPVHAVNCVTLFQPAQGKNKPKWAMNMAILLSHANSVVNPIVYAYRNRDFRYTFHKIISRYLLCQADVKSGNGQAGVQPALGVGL
In words: Inhibition of luciferase production elicited by NECA by compound in CHO cells transfected with human adenosine A2b receptor and a luciferase expressing reporter plasmid in a reporter gene assay. In kind it is cell-based.

Another series has as its target T2, Adenosine receptor A1 (Homo sapiens, UniProt P30542).
T2 sequence (P30542 whole entry): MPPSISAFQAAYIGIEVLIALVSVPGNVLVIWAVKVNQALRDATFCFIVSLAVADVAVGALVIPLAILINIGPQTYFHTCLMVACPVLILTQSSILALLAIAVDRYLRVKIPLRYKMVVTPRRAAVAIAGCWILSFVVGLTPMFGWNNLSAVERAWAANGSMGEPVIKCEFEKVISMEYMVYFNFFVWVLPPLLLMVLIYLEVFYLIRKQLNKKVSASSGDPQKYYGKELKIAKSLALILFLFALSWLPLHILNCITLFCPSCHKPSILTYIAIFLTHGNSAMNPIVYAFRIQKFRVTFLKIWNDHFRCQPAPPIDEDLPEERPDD
In words: Displacement of [3H]DPCPX from human adenosine A1 receptors transfected in CHO cells. Format: cell-based.

A further series has as its target T3, Adenosine receptor A3 (Homo sapiens, UniProt P0DMS8).
T3 sequence (P0DMS8 whole entry): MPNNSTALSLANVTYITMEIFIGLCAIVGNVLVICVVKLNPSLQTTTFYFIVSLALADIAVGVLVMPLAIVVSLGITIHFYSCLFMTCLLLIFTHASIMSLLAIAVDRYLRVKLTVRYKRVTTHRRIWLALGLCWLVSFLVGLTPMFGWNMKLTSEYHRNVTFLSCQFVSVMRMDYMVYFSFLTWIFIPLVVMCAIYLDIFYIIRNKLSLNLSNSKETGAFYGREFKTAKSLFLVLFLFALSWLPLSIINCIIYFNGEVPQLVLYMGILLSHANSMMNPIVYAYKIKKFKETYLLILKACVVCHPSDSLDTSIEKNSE
In words: Displacement of [125I]-AB-MECA from human adenosine A3 receptors transfected in CHO cells. Format: cell-based.

A short description of series [2]: Clearance in wistar rat was determined by intra venous administration of 2:1 PEG200/0.1 M phosphate buffer at 0.1 mL/kg concentration. In kind it is ADME, organism-based. The conditions noted are these: in vivo, iv.
Series [3] is described as follows: Time to reach Cmax after oral administration at 1 mL/kg concentration in wistar rat. Format: ADME, organism-based. The conditions noted are these: in vivo.
The nature of series [4]: Maximum concentration in wistar rat at 1 mL/kg concentration of compound after oral administration. Format: ADME, organism-based. On the set-up: dose 1 mL/kg, route oral. The conditions noted are these: in vivo.
Series [5] in a line: Bioavailability of compound after oral administration at 1 mL/kg concentration in wistar rat. The note with it: in vivo, read-out: BAV. In kind it is ADME, organism-based.
Series [6] can be described thus: Half life of trhe compound after oral administration at 1 mL/kg concentration in wistar rat. The conditions noted are these: in vivo. Format: ADME, organism-based.
Series [7] in a line: Volume abserved at study state after intra venous administration of 2:1 PEG200/0.1 M phosphate buffer at 0.1 mL/kg concentration in wistar rat. The conditions noted are these: in vivo, iv, read-out: Vss. In kind it is ADME, organism-based.
Series [8] is described as follows: Half life in wistar rat was determined by intra venous administration of 2:1 PEG200/0.1 M phosphate buffer at 0.1 mL/kg concentration. In kind it is ADME. The conditions noted are these: in vivo, iv.

Each structure is given as a SMILES string.

Sequence of Adenosine receptor A2a (P29274 whole entry): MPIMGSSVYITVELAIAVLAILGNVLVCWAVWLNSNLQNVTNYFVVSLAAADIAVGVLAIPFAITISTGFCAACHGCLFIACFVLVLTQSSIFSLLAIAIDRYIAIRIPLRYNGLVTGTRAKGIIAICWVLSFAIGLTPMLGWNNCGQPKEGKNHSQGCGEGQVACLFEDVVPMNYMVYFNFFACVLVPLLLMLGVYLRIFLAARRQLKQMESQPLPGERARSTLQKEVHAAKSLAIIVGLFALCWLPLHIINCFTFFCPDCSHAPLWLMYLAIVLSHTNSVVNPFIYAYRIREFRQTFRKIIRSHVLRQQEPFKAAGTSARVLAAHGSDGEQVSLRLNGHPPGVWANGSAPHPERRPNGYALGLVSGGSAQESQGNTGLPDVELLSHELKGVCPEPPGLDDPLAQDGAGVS

Turning to `N#Cc1cccc(-c2nc(Nc3cccnc3)sc2-n2cncn2)c1`, the results for the Ki on Adenosine receptor A2a, at Adenosine receptor A1 and on Adenosine receptor A3 were 2570 nM, 1530 nM and 698 nM, respectively. In series [1], this compound yielded a Kb of 86 nM.

In the case of `N#Cc1cccc(-c2nc(Nc3cccnc3)sc2-n2ccnc2)c1`, the inhibition constant Ki on Adenosine receptor A2a was found to be 2700 nM; at Adenosine receptor A1, 560 nM; at Adenosine receptor A3, 124 nM. The same compound displayed a Kb in series [1] of 92 nM.

On to `N#Cc1cccc(-c2nc(Nc3cnccn3)sc2-n2cncn2)c1`, for which the Ki was found to be 3580 nM on Adenosine receptor A2a and 2090 nM on Adenosine receptor A1. Also, in [1], the Kb stood at 12 nM.

With `Cc1cccc(Nc2nc(-c3cccc(C#N)c3)c(-n3cncn3)s2)n1`, the Ki was over 10000 nM at Adenosine receptor A2a, over 10000 nM at Adenosine receptor A1 and 37 nM at Adenosine receptor A3. This compound displayed a Kb in series [1] of 20 nM.

For `N#Cc1cccc(-c2nc(Nc3ccccn3)sc2-n2cncn2)c1`, the Ki stood at 2020 nM on Adenosine receptor A2a, 1760 nM on Adenosine receptor A1 and 24 nM on Adenosine receptor A3. Besides, the Kb in [1] is 53 nM.

For the compound `N#Cc1cccc(-c2nc(Nc3cnccn3)sc2-n2ccnc2)c1`, the Ki came out at 349 nM on Adenosine receptor A2a, 46 nM at Adenosine receptor A1 and 11 nM on Adenosine receptor A3. This compound also showed a Kb in [1] of 7 nM.

For the compound `Cc1nccn1-c1sc(Nc2cnccn2)nc1-c1cccc(C#N)c1`, the clearance in [2] stood at 94.4 mL/min/kg. Moreover, the Ki on Adenosine receptor A2a stood at 1670 nM; at Adenosine receptor A1, 197 nM; on Adenosine receptor A3, 10 nM. Also, the Kb in [1] turned out to be 3 nM. Further, the Tmax in [3] is 39.3 min. For the same compound, in series [4], the Cmax stood at 560 nM. Also, the bioavailability in [5] stood at 30.2%. The half-life in [6] was 191 min; in [8], 29 min. Further, the Vd in series [7] came out at 3.02 L/kg.

Consider `Cc1cccc(Nc2nc(-c3cccc(C#N)c3)c(-n3ccnc3C)s2)n1`, for which the Ki at Adenosine receptor A2a is 175 nM; on Adenosine receptor A1, 224 nM; at Adenosine receptor A3, 419 nM. Besides, in series [1], the Kb was 10 nM.

Regarding `Cc1cccc(Nc2nc(-c3cccc(C#N)c3)c(-n3ccnc3)s2)n1`, the inhibitory constant (Ki) at Adenosine receptor A2a amounted to 2700 nM; at Adenosine receptor A1 it was 8 nM; at Adenosine receptor A3, 44 nM. The compound further registered a Kb in series [1] of 92 nM.

As for `N#Cc1cccc(-c2nc(Nc3ccncc3)sc2-n2cncn2)c1`, the figures for the Ki at Adenosine receptor A2a and on Adenosine receptor A3 were 4160 nM and 304 nM, respectively. The compound further yielded a Kb in series [1] of 62 nM.

`CC(=O)Nc1nc(-c2cccc(C#N)c2)c(-n2cncn2)s1`: the figures for the Ki on Adenosine receptor A2a, at Adenosine receptor A1 and at Adenosine receptor A3 were 5610 nM, 2840 nM and 134 nM, respectively. Further, the Kb in series [1] turned out to be 365 nM.

(Values after ChEMBL document CHEMBL1139627, “A new orally bioavailable dual adenosine A2B/A3 receptor antagonist with therapeutic potential” (Bioorg Med Chem Lett, 2005).)
